“And” between values parts separate entries of the source, which are not always exact repeats. Identical values can stand only once. Marks after values point to notes of the source that are not given here.
What was measured:
α1-adrenoceptor = system: α1-adrenoceptor; set-up: method as in PMID 30626882; conditions: no test in this paper; α1 antagonism attributed; cited from earlier work
PAH rats [1] = assay: Heart weights and Fulton index at sacrifice; format: in vivo, rat; conditions: ~6 mg·kg^−1·day^−1 i.p. minipump, 28 days
Procedure: Rats were euthanized under 3–5% isoflurane anesthesia by exsanguination by aorta puncture. Hearts, lungs, and pulmonary arteries were harvested and processed for further analyses. The hearts were weighed and dissected into the left atrium, ventricle, right atrium, and ventricle and septum, which were all individually weighted. The Fulton Index was calculated as: Fulton Index=RV/(LV+IVS) , wherein RV and LV are right and left ventricular weights, respectively, and IVS is the weight of the interventricular septum. The right ventricle was cut in half, and one half was fixed in 3.6% formalin and embedded in paraffin. The other half was snap frozen in liquid nitrogen. The left lung lobe was fixed by filling the airways with 3.6% formalin and embedded in paraffin. The right lung lobe was snap frozen in liquid nitrogen.

PAH rats [2] = assay: Histochemistry: pulmonary artery and vessel remodeling, cardiomyocyte hypertrophy, cardiac fibrosis; format: in vivo, rat; conditions: ~6 mg·kg^−1·day^−1 i.p. minipump, 28 days
Procedure: Cross-sectional cardiomyocyte area was determined for approximately 400 cardiomyocytes/sample (range 182–768) using Fiji 2.1.0/1.53c in binary mode with the following particle analyzer settings: circularity 0.25–1.00 and pixel area 300–1000 px^2.
Cardiac fibrosis was measured after picrosirius staining and counterstaining with Weigert’s hematoxylin (both Sigma-Aldrich, St. Louis, MO, USA) following the manufacturer’s instructions. Samples were imaged on a NanoZoomer digital slide scanner (Hammamatsu Photonics, Shizuoka, Japan) at 40× magnification. Interstitial fibrosis (i.e., non-perivascular fibrosis) was quantified using Aperio ImageScope (Leica Biosystems, Nussloch, Germany). Morphology of the intra-acinar pulmonary vessels was assessed after Verhoeff-Von Gieson staining (Sigma-Aldrich, St. Louis, MO, USA). Samples were imaged on a Leica DM2000 microscope at 63× magnification using Leica Image Acquisition software version 4.13 (Leica, Wetzlar, Germany). Pulmonary vessel remodeling was quantified as described previously.

PAH rats [3] = assay: Echocardiogram and hemodynamic measurements in monocrotaline + aortocaval shunt PAH rats; format: in vivo, rat; set-up: LVOT VTI / PV Acceleration slope: unit not given here
Procedure: Animal care and experiments were approved by the Institutional Animal Care and Use Committee (CCD # AVD105002015129) and in accordance with the ARRIVE guidelines. Forty (40) male Wistar rats (Harlan, 7–9 weeks old, weighing 276 ± 15 g) were used. PAH was induced by a single i.p. injection of monocrotaline (60 mg·kg^−1) and the placement of an aortocaval shunt one week later as described previously.
The administration of vehicle and SUL-150 started 7 days post-monocrotaline injection and was performed by the i.p. implantation of osmotic minipumps (Alzet model #2004, Durect Corp., Cupertino, CA, USA) at the time of aortocaval shunt placement. The Lynch coil method was used to circumvent compatibility issues with the osmotic minipump reservoir as described previously. Vehicle (dimethyl sulfoxide (DMSO) or SUL-150 ((R)-(6-hydroxy-2,5,7,8-tetramethylchroman-2-yl)(piperazin-1-yl)methanone, 0.9 M in DMSO, Sulfateq BV, Groningen, The Netherlands) was administered at a flow rate of 0.25 µL·h^−1, accumulating to an approximate dose of 6 mg·kg^−1·day^−1 SUL-150 in a 300 g rat. Animals were weighed, watched for dyspnea, cyanosis, and oedema, and sacrificed preterm when a 15% weight loss or debilitating dyspnea occurred.
Echocardiographic (ECG) examination was performed under isoflurane anesthesia (5% in air during induction, 2% in air during maintenance) via inhalation prior to euthanisation using a Vivid Dimension 7 system and 10S-transducer (GE Healthcare, Waukesha, WI, USA). Ventricular dimensions, eccentricity index, and flow profiles over the aortic, pulmonary, and tricuspid valves were measured in standard views. Cardiac output (mL·min^−1) was calculated using the following equation: CO(mL·min^−1)=(LVOTarea×LVOTVTI)×HR , wherein LVOT area is the area of the left ventricular outflow tract, LVOT VTI is the velocity-time integral and HR is heart rate. Subsequent to ECG, invasive hemodynamic measurements were performed using a closed chest technique as described by others. A fluid-filled pressure catheter was inserted into the right internal jugular vein and guided to the pulmonary artery under pressure waveform monitoring using a bedside monitor. Right ventricular systolic and diastolic pressure, pulmonary arterial pressures, and pulmonary wedge pressure were measured. Mean pulmonary arterial pressure (mmHg) was calculated as: mPAP(mmHg)=(2/3dPAP+1/3sPAP) , wherein dPAP and sPAP are diastolic and systolic pulmonary artery pressure, respectively. Total pulmonary vascular resistance was estimated as: PVRmmHg·mL·min^−1=(mPAP−PCWP)/CO , wherein mPAP, mPWP, and CO are mean pulmonary artery pressure, pulmonary capillary wedge pressure, and cardiac output, respectively.

[4] = PAH rats, ~6 mg·kg^−1·day^−1 i.p. minipump, 28 days
[5] = PAH rats, ~6 mg·kg^−1·day^−1 i.p. minipump, 28 days, echocardiography
[6] = PAH rats, ~6 mg·kg^−1·day^−1 i.p. minipump, 28 days, result in words
[7] = SUL-150-treated versus vehicle-treated PAH rats

## Cc1c(C)c2c(c(C)c1O)CC[C@](C)(C(=O)N1CCNCC1)O2 [SUL-150, (R)-(6-hydroxy-2,5,7,8-tetramethylchroman-2-yl)(piperazin-1-yl)methanone]
α1-adrenoceptor
  pA2 as an α1-adrenoceptor antagonist: ≈ 5.4
PAH rats [1]
  Heart weight (relative to body weight): 4.37 ± 0.66 ^a mg·g^−1
  IVS weight (relative to body weight): 0.81 ± 0.22 mg/g
  LA weight (relative to body weight): 0.23 ± 0.11 ^a mg·g^−1
  LV weight (relative to body weight): 1.60 ± 0.29 ^a mg·g^−1
  RA weight (relative to body weight): 0.38 ± 0.12 ^a mg·g^−1
  RV weight (relative to body weight): 1.23 ± 0.31 ^a mg·g^−1
PAH rats [1]; RV/(LV+IVS)
  Fulton Index: 0.51 ± 0.09 ^a
PAH rats [2]
  cardiomyocyte cross-sectional area (right ventricle): 246.1 ± 39.4 µm^2
  cross-sectional vascular area: 888.2 ± 146.7 µm^2
  interstitial fibrosis in the cardiac tissue: 9.3 % of tissue area
  intra-acinar pulmonary vessels, cross-sectional lumen area: 365.7 ± 101.1 µm^2
  intra-acinar vessel occlusion score: 39.0 ± 7.4%
  pulmonary artery wall thickness: 57.6 ± 13.0 µm
  wall–lumen ratio: 0.42 ± 0.12 µmwall·µmlumen^−1
PAH rats [2]; vessels with a luminal area < 40 µm^2
  percentage of non-perfusable vessels: 4.45 ± 2.62%
PAH rats [3]; [4]
  Pulmonary artery pressure, Diastolic: 19.0 ± 5.7 mmHg
  Pulmonary artery pressure, Mean (mPAP): 27.7 mmHg and 27.7 ± 5.8 mmHg and 27.7 ± 5.8 ^a mmHg
  Pulmonary wedge pressure, Mean: 4.8 ± 1.9 mmHg
  Tricuspid valve insufficiency, Average grade (0–3): 1.0 ± 1.0 ^a,b
  Tricuspid valve insufficiency, Mild: 14.3%
  Tricuspid valve insufficiency, Moderate: 42.9%
  Tricuspid valve insufficiency, Severe: 0%
PAH rats [3]; PAH rats, ~6 mg·kg^−1·day^−1 i.p. minipump, 28 days, (mPAP−PCWP)/CO
  Vascular resistance, Pulmonary: 0.12 ± 0.05 mmHg·min·mL^−1
PAH rats [3]; [5]
  LVIDd: 4.27 ± 0.46 mm
  LVOT Pmax: 5.57 ± 3.73 mmHg
  LVOT VTI: 6.16 ± 2.33
  LVOT Vmax: 1.12 ± 0.39 m·s^−1
  LVOT diameter: 3.37 ± 0.24 ^b mm
  PAAT: 17.07 ± 4.17 ms
  PV Acceleration slope: 65.37 ± 19.75
  PV Pmax: 5.74 ± 1.50 mmHg
  PV Vmax: 1.14 ± 0.19 m·s^−1
  RVIDd: 3.87 ± 1.37 ^b mm
  RVIDd/LVIDd ratio: 0.92 ± 0.35
  TAPSE: 2.90 ± 0.49 ^b mm
PAH rats [3]; [6]
  cardiac output: normalized
  heart rate: normalized
PAH rats [3]; [7]
  decrease in diastolic pulmonary artery pressure compared to PAH rats: 25%
  decrease in right ventricle inner diameter in diastole versus PAH rats: 38%
  decrease in right ventricular pressure at diastole versus PAH rats: 52%
  increase in stroke volume compared to vehicle-treated PAH rats: 68%
